From patent publication US8859529B2, “Compounds for the treatment of inflammatory disorders” (Merck Sharp & Dohme Corp., priority 2008, dated 2014) come the findings set out here.

As a reminder, the IC50 is the midpoint of a concentration-inhibition curve. Higher therefore signals weaker potency in that assay.

Data set [1] deals with TNF-α production from human whole blood. As to the kind of experiment: Inhibition of TNF-α production from human whole blood (hWBA). It is filed as cell-based. The following applies: human whole blood diluted 1:1, 1 h pre-incubation, LPS, 3.5 h, TNF-α by ELISA; N/A = Not Active. As for the experimental part:
The compounds' ability to inhibit TACE activity can also be determined in human whole blood using the assay conditions described n Example 15 below.
Human whole blood was diluted 1:1 with serum free medium (RPMI, L-glutamine, Pen-Strep, HEPES) and incubated with a test compound in a final volume of 360 μl for 1 h at 37° C. Forty microliters of LPS (10 μg/mL) was then added. Supernatant was collected after 3.5 h incubation and the concentration of TNF-α was determined by ELISA (R&D Systems). The concentration of the test compound which inhibits 50% of the amount of TNF-α from the untreated control was determined.

Data set [2] can be described thus: Area under the curve determinations of plasma levels in rats (rrAUC). It is filed as in vivo. The conditions noted are these: rapid rat AUC of the drug (parent) in plasma; oral 10 mg/kg, fasted rats, blood 0.5-6 h post-dosing. As for the experimental part: To gain insight into the pharmacokinetic properties of the compounds of formula (I), plasma levels of the compounds in rats were determined according to the protocol described in Korfmacher, W. A,; Cox, K. A.; Ng, K. J.; Veals, J.; Hsieh, Y.; Wainhaus, S.; Broske, L; Prelusky, D.; Nomeir, A.; White, R. E. Rapid Commun. Mass Spectrorn, 2001, 15, 335. Briefly, rats, after an overnight fast, were dosed orally with the test compound at a dose of 10 mg/kg in a 5 mL/kg dose volume. Blood was collected at 0.5, 1, 2, 3, 4, and 6 h post-dosing. Mass spectrometry using high performance liquid chromatography was used to identify and measure the concentrations of the test compounds in the plasma at the various time points. The parent ion of each test compound was used to identify and quantitate the compounds in plasma.

In data set [1], `COc1ccc2c(c1)C(=O)N(C[C@@]1(c3cc4ncccc4o3)NC(=O)N(COC(=O)C(C)(C)C)C1=O)C2` [Compound 1] returned an IC50 of 281 nM. Moreover, in data set [2], the “PK (rrAUC) parent” value came out at 13101 nM·h.
On to `COc1ccc2c(c1)C(=O)N(C[C@@]1(c3cc4cnccc4o3)NC(=O)N(COC(=O)C(C)(C)C)C1=O)C2` [Compound 2], for which, in data set [1], the IC50 was determined as 273 nM. Also, in data set [2], the “PK (rrAUC) parent” value was 13539 nM·h.
In data set [1], `CCN1CCN(c2ccc3oc([C@]4(CN5Cc6ccc(OC)c(F)c6C5=O)NC(=O)N(COC(=O)C(C)(C)C)C4=O)cc3n2)CC1` [Compound 3] gave an IC50 of 61 nM. The “PK (rrAUC) parent” value in data set [2] was determined as 19953 nM·h.
In data set [1], `COc1ccc2c(c1F)C(=O)N(C[C@@]1(c3cc4nc(N5CCN(C)CC5)ccc4o3)NC(=O)N(COC(=O)C(C)(C)C)C1=O)C2` [Compound 4] came in with an IC50 of 92 nM. The “PK (rrAUC) parent” value in data set [2] came out at 8621 nM·h.
On to `COc1ccc2c(c1F)C(=O)N(C[C@@]1(c3cc4nc(N5CCNC(=O)C5)ccc4o3)NC(=O)N(COC(=O)C(C)(C)C)C1=O)C2` [Compound 5], for which 104 nM corresponded to half-maximal inhibition in data set [1] (IC50). Further, the “PK (rrAUC) parent” value in data set [2] came to 121 nM·h.
Take `COc1ccc2c(c1F)C(=O)N(C[C@@]1(c3cc4nc(N5CCC5=O)ccc4o3)NC(=O)N(COC(=O)C(C)(C)C)C1=O)C2` [Compound 6]: the IC50 in data set [1] stood at 447 nM. For the same compound, the “PK (rrAUC) parent” value in data set [2] came to 2283 nM·h.
`COc1ccc2c(c1F)C(=O)N(C[C@@]1(c3cc4nc(N5C(=O)CCC5C)ccc4o3)NC(=O)N(COC(=O)C(C)(C)C)C1=O)C2` (stereo partly drawn) [Compound 9] returned a 50% inhibitory concentration (IC50) in data set [1] of 192 nM. Also, the “PK (rrAUC) parent” value in data set [2] is 4557 nM·h.
On the same counts, the results for `COc1ccc2c(c1)C(=O)N(C[C@@]1(c3cc4nc(N5C(=O)CCC5C)ccc4o3)NC(=O)N(COC(=O)C(C)(C)C)C1=O)C2` (stereo partly drawn) [Compound 10] are 266 nM and 1202 nM·h.
For `COc1ccc2c(c1F)C(=O)N(C[C@@]1(c3cc4c(C)nccc4o3)NC(=O)N(COC(=O)C(C)(C)C)C1=O)C2` [Compound 11], the IC50 in data set [1] was determined as 235 nM. The “PK (rrAUC) parent” value in data set [2] came to 1827 nM·h.
As for `COc1ccc2c(c1F)C(=O)N(C[C@@]1(c3cc4cnc(C)cc4o3)NC(=O)N(COC(=O)C(C)(C)C)C1=O)C2` [Compound 12], in data set [1], 187 nM corresponded to half-maximal inhibition (IC50). Besides, the “PK (rrAUC) parent” value in data set [2] is 45,213 nM · h.
As to `COc1ccc2c(c1)C(=O)N(C[C@@]1(C#Cc3ccc4c(=O)[nH][nH]c4c3)NC(=O)N(COC(=O)C(C)(C)C)C1=O)C2` [Compound 13], half-maximal inhibition in data set [1] (IC50) required 213 nM. Moreover, the “PK (rrAUC) parent” value in data set [2] turned out to be 0 nM·h.
In the same order, the values of `COc1ccc2c(c1F)C(=O)N(C[C@@]1(C#Cc3ccc4c(=O)[nH][nH]c4c3)NC(=O)N(COC(=O)C(C)(C)C)C1=O)C2` [Compound 14] are 275 nM and 0 nM·h.
The compound `COc1ccc2c(c1F)C(=O)N(C[C@@]1(c3cc4cc5c(cc4o3)C(=O)NCC5)NC(=O)N(COC(=O)C(C)(C)C)C1=O)C2` [Compound 32] displayed an IC50 in data set [1] of 135 nM.
Consider `COc1ccc2c(c1)C(=O)N(C[C@@]1(c3cc4cnccc4o3)NC(=O)N(COC(=O)C3(C)CCCCC3)C1=O)C2` [Compound 35.2], for which it took 35.2 nM to reach half-maximal inhibition in data set [1] (IC50).
In turn, `COc1ccc2c(c1F)C(=O)N(C[C@@]1(c3cc4nc(C(N)=O)ccc4o3)NC(=O)N(COC(=O)C(C)(C)C)C1=O)C2` [Compound 35] yielded an IC50 in data set [1] of 79 nM.
For the compound `CCCN1CCN(c2ccc3oc([C@]4(CN5Cc6ccc(OC)c(F)c6C5=O)NC(=O)N(COC(=O)C(C)(C)C)C4=O)cc3n2)CC1` [Compound 40], in data set [1], the IC50 was 258 nM.
Take `COc1ccc2c(c1)C(=O)N(C[C@@]1(C#Cc3ccc(-c4ncccc4OC(=O)C(C)(C)C)cc3)NC(=O)N(COC(=O)C(C)(C)C)C1=O)C2` [Compound 42]: in data set [1], the IC50 is 794 nM.
In data set [1], `CCOCCOC(=O)OCN1C(=O)N[C@@](CN2Cc3ccc(OC)cc3C2=O)(c2cc3cnccc3o2)C1=O` [Compound 63.6] returned an IC50 of 208 nM.
Still for that read-out and setting: the figure for `COCCOCC(=O)OCN1C(=O)N[C@@](CN2Cc3ccc(OC)cc3C2=O)(c2cc3cnccc3o2)C1=O` [Compound 67.2] is 313 nM.
In turn, `COc1ccc2c(c1)C(=O)N(C[C@@]1(c3cc4cnccc4o3)NC(=O)N(C(C)OC(=O)N(C)C)C1=O)C2` (stereo partly drawn) [Compound 70] displayed an IC50 in data set [1] of 774 nM.
For the compound `COc1ccc2c(c1)C(=O)N(C[C@@]1(c3cc4cnccc4o3)NC(=O)N(C(C)OC(=O)N3CCN(C)CC3)C1=O)C2` (stereo partly drawn) [Compound 71], in data set [1], the IC50 is 9920 nM.
For the compound `CCOP(=O)(OCC)OCN1C(=O)N[C@@](CN2Cc3ccc(OC)c(F)c3C2=O)(c2cc3nc(N4CCN(CC)CC4)ccc3o2)C1=O` [Compound 73], the IC50 in data set [1] is 255 nM.
For the compound `COc1ccc2c(c1)C(=O)N(C[C@@]1(c3cc4cnccc4o3)NC(=O)N(COP(=O)(O)O)C1=O)C2` [Compound 74.1], the IC50 in data set [1] is 720 nM.
Compound `COc1ccc2c(c1)C(=O)N(C[C@@]1(c3cc4cnccc4o3)NC(=O)N(COP(=O)(OCc3ccccc3)OCc3ccccc3)C1=O)C2` [Compound 74] registered an IC50 in data set [1] of 3150 nM.
For `COc1ccc2c(c1F)C(=O)N(C[C@@]1(c3cc4cc5c(c(F)c4o3)C(=O)NC5)NC(=O)N(C3OC(=O)c4ccccc43)C1=O)C2` (stereo partly drawn) [Compound 75], in data set [2], the “PK (rrAUC) parent” value was determined as 189 nM·h.
Take `COc1ccc2c(c1)C(=O)N(C[C@@]1(c3cc4cnccc4o3)NC(=O)N(C(=O)OC3COCOC3)C1=O)C2` [Compound 77]: the “PK (rrAUC) parent” value in data set [2] turned out to be 0 nM·h.
With `COc1ccc2c(c1)C(=O)N(C[C@]1(c3cc4ncccc4o3)C(=O)N(C(C)OC(C)=O)C(=O)N1C(C)=O)C2` (stereo partly drawn) [Compound 78], it took 2120 nM to reach half-maximal inhibition in data set [1] (IC50).
For the compound `COc1ccc2c(c1)C(=O)N(C[C@]1(c3cc4ncccc4o3)C(=O)N(COC(=O)C(C)(C)C)C(=O)N1COC(=O)C(C)(C)C)C2` [Compound 80], in data set [2], the “PK (rrAUC) parent” value came out at 3092 nM·h.
The compound `COc1ccc2c(c1F)C(=O)N(C[C@]1(c3cc4nc(C(N)=O)ccc4o3)C(=O)N(COC(=O)C(C)(C)C)C(=O)N1COC(=O)C(C)(C)C)C2` [Compound 81] returned an IC50 in data set [1] of 159 nM.
As for `CCCC(=O)OCN1C(=O)N(C(=O)CCC)[C@@](CN2Cc3ccc(OC)cc3C2=O)(c2cc3cnccc3o2)C1=O` [Compound 82], the “PK (rrAUC) parent” value in data set [2] was determined as 783 nM·h.
The same measure, in the same setting: the figure for `COc1ccc2c(c1)C(=O)N(C[C@]1(c3cc4cnccc4o3)C(=O)N(COC(=O)c3ccccc3)C(=O)N1C(=O)c1ccccc1)C2` [Compound 84] is 126 nM·h.
In turn, `CCOc1ccc2c(c1F)C(=O)N(C[C@]1(c3cc4nc(N5CCN(CC)CC5)ccc4o3)C(=O)N(COC(=O)C(C)(C)C)C(=O)N1COC(=O)C(C)(C)C)C2` [Compound 85] registered an IC50 in data set [1] of 381 nM.
As for `COc1ccc2c(c1)C(=O)N(C[C@]1(c3cc4cnccc4o3)C(=O)N(COC(=O)C3CCCCC3)C(=O)N1C(=O)C1CCCCC1)C2` [Compound 87], the “PK (rrAUC) parent” value in data set [2] came out at 0 nM·h.
Take `COc1ccc2c(c1)C(=O)N(C[C@]1(c3cc4cnccc4o3)C(=O)N(C(C)OC(=O)OC3COCOC3)C(=O)N1C(=O)OC1COCOC1)C2` (stereo partly drawn) [Compound 88]: the “PK (rrAUC) parent” value in data set [2] was found to be 0 nM·h.
Regarding `CCOCCOC(=O)OCN1C(=O)N(C(=O)OCCOCC)[C@@](CN2Cc3ccc(OC)cc3C2=O)(c2cc3cnccc3o2)C1=O` [Compound 89.1], the IC50 in data set [1] was 3150 nM.
Turning to `COc1ccc2c(c1)C(=O)N(C[C@]1(c3cc4cnccc4o3)C(=O)N(COC(=O)OCCN(C)C(=O)OCc3ccccc3)C(=O)N1C(=O)OCCN(C)C(=O)OCc1ccccc1)C2` [Compound 89], the IC50 in data set [1] came to 4890 nM.
